We go through three molecules from patent US8835428B2, “Diacylglycerol acyltransferase inhibitors” (Piramal Enterprises Limited, priority 2008, dated 2014).

The experiment concerns the target T1, hDGAT1 (Homo sapiens, UniProt O75907).
T1 construct: host or cells: Sf9 insect cells (baculovirus); microsomal preparation
T1 sequence (O75907 1-488): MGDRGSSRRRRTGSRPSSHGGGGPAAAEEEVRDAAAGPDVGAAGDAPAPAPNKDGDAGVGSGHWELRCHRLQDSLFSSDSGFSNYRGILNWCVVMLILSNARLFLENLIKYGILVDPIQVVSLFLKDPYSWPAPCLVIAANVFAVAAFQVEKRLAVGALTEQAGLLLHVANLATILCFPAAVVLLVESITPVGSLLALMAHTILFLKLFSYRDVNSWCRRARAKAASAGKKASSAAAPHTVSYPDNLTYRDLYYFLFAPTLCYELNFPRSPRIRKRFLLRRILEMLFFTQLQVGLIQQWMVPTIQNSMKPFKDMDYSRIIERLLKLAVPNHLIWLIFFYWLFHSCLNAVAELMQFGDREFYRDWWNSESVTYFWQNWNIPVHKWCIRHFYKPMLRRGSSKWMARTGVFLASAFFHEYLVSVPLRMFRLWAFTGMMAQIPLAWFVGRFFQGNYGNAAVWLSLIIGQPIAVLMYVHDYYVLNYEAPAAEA
The experiment can be described thus: In-vitro DGAT1 assay (hDGAT1 microsomes from Sf9 cells, 14C oleoyl CoA, triglyceride formation). The experiment is classed as biochemical. In short, it runs like this:
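Human DGAT1 in baculovirus-infected Sf9 microsomes (2.5–10 μg), [14C]oleoyl-CoA with 409.5, 1228.5 or 1638 μM 1,2-dioleoyl-sn-glycerol, Tris-HCl pH 7.4 buffer with BSA. Compounds screened at 10, 5 and 1 μM in duplicate. Reaction 10 min at 37 °C; heptane-extracted [14C]triglyceride counted by scintillation.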

As usually defined, the inhibition is the change of the read-out against control, counted positive when it falls.

Molecule `COC(=O)[C@H](CO)NC(=O)c1cc(-c2ccc(NC(=O)Nc3ccccc3F)cc2)no1` [Example 298, (S)-Methyl 2-(3-(4-(3-(2-fluorophenyl)ureido)phenyl)isoxazole-5-carboxamido)-3-hydroxypropanoate] came in with an inhibition at 5 µM of 50 to 75%.
As to `CC(C)[C@@H](C(=O)O)N(C)C(=O)c1cc(-c2ccc(NC(=O)Nc3ccccc3F)cc2)no1` [Example 306, (S)-2-(3-(4-(3-(2-fluorophenyl)ureido)phenyl)-N-methylisoxazole-5-carboxamido)-3-methylbutanoic acid], the inhibition at 1 µM (At 1 μM) lay within 50 to 75%.
For `CC(C)[C@H](NC(=O)c1nc(-c2ccc(NC(=O)Nc3ccccc3F)cc2)no1)C(=O)O` [Example 349, (S)-2-(3-(4-(3-(2-Fluorophenyl)ureido)phenyl)-1,2,4-oxadiazole-5-carboxamido)-3-methylbutanoic acid], the inhibition at 5 µM fell in the range of 50 to 75%.
